# Laboratory results published in patent US12522595B2, “Bicyclic ether O-glycoprotein-2-acetamido-2-deoxy-3-D-glucopyranosidase inhibitors” (BIOGEN MA INC., priority 2019, dated 2026).
# Target: T1, Recombinant full length human OGA enzyme (Homo sapiens, UniProt O60502)
# T1 construct: Recombinant full length human OGA enzyme was purchased from Origene; purchased Origene
# T1 sequence (O60502 1-916): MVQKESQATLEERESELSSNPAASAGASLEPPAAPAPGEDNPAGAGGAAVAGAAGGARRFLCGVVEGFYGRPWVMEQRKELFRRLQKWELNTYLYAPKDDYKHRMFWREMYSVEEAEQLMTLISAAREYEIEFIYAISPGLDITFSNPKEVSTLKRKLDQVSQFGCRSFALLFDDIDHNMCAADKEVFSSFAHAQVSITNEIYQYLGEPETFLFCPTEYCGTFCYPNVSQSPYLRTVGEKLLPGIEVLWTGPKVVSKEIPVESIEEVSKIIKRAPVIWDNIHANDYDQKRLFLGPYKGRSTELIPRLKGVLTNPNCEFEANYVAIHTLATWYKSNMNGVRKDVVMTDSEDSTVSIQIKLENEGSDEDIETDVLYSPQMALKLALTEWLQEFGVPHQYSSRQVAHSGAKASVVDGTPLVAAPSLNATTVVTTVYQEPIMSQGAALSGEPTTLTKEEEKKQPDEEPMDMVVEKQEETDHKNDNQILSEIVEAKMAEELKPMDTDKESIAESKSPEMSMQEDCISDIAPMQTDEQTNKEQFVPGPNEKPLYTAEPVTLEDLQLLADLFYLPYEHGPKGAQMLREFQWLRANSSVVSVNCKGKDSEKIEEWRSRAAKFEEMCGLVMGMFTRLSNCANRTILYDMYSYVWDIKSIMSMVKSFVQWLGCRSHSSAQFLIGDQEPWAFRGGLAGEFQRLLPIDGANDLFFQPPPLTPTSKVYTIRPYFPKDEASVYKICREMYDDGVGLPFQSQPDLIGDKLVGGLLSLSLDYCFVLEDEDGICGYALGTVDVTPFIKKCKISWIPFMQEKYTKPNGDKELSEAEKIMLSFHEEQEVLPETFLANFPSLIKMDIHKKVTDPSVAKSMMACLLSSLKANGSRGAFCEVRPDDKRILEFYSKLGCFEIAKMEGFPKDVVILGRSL
# Assay: OGA enzyme inhibition biochemical assay
# Conditions: 1 nM OGA, 100 μM 4-MUGlcNAc (Km), pH 6.4, 90 minutes at room temperature, 10-point dose-response from 20 μM
# In short: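 1 nM OGA with 100 μM 4-MUGlcNAc (Km) in McIlvaine buffer pH 6.4, 0.01% BSA, 90 min at room temperature; quenched with 3M glycine pH 10, fluorescence Ex 355/Em 460 nm. 10-point, 4-fold dilutions from 20 μM; 4-parameter variable-slope fit.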
row,IC50 [nM],Compound
1,< 1,"CC(=O)Nc1nc(F)c(CN2C[C@H](Oc3cccc4cn(C)nc34)C[C@@H]2C)s1 [Example 161, N-(4-fluoro-5-(((2S,4R)-2-methyl-4-((2-methyl-2H-indazol-7-yl)oxy)pyrrolidin-1-yl)methyl)thiazol-2-yl)acetamide]"
2,< 1,"CC(=O)Nc1ncc(CN2C[C@H](Oc3ccc4ccn(C)c4n3)C[C@@H]2C)s1 [Example 162, N-(5-(((2S,4R)-2-methyl-4-((1-methyl-1H-pyrrolo[2,3-b]pyridin-6-yl)oxy)pyrrolidin-1-yl)methyl)thiazol-2-yl)acetamide]"
3,< 1,"CC(=O)Nc1nc(F)c(CN2C[C@H](Oc3ccc4ccn(C)c4n3)C[C@@H]2C)s1 [Example 163, N-(4-fluoro-5-(((2S,4R)-2-methyl-4-((1-methyl-1H-pyrrolo[2,3-b]pyridin-6-yl)oxy)pyrrolidin-1-yl)methyl)thiazol-2-yl)acetamide]"
4,< 1,"CC(=O)Nc1nc(F)c(CN2C[C@H](Oc3cnc4nccn4c3)C[C@@H]2C)s1 [Example 164, N-(4-fluoro-5-(((2S,4R)-4-(imidazo[1,2-a]pyrimidin-6-yloxy)-2-methylpyrrolidin-1-yl)methyl)thiazol-2-yl)acetamide]"
5,< 1,"CC(=O)Nc1nc(F)c(CN2C[C@H](Oc3cnc4nncn4c3)C[C@@H]2C)s1 [Example 165, N-(5-(((2S,4R)-4-([1,2,4]triazolo[4,3-a]pyrimidin-6-yloxy)-2-methylpyrrolidin-1-yl)methyl)-4-fluorothiazol-2-yl)acetamide]"
6,< 1,"COc1ccc2ccc(O[C@@H]3C[C@H](C)N(Cc4cnc(NC(C)=O)s4)C3)nc2n1 [Example 166, N-(5-(((2S,4R)-4-((7-methoxy-1,8-naphthyridin-2-yl)oxy)-2-methylpyrrolidin-1-yl)methyl)thiazol-2-yl)acetamide]"
7,< 1,"COc1ccc2ccc(O[C@@H]3C[C@H](C)N(Cc4sc(NC(C)=O)nc4F)C3)nc2n1 [Example 167, N-(4-fluoro-5-(((2S,4R)-4-((7-methoxy-1,8-naphthyridin-2-yl)oxy)-2-methylpyrrolidin-1-yl)methyl)thiazol-2-yl)acetamide]"
8,< 1,"CC(=O)Nc1ncc(CN2C[C@H](Oc3cnc4nc(C)oc4c3)C[C@@H]2C)s1 [Example 168, N-(5-(((2S,4R)-2-Methyl-4-((2-methyloxazolo[4,5-b]pyridin-6-yl)oxy)pyrrolidin-1-yl)methyl)thiazol-2-yl)acetamide]"
9,< 1,"CC(=O)Nc1nc(F)c(CN2C[C@H](Oc3cnc4nc(C)oc4c3)C[C@@H]2C)s1 [Example 169, N-(4-Fluoro-5-(((2S,4R)-2-methyl-4-((2-methyloxazolo[4,5-b]pyridin-6-yl)oxy)pyrrolidin-1-yl)methyl)thiazol-2-yl)acetamide]"
10,< 1,"CC(=O)Nc1nc(F)c(CN2C[C@H](Oc3cnc4ccnn4c3)C[C@@H]2C)s1 [Example 170, N-(4-fluoro-5-(((2S,4R)-2-methyl-4-(pyrazolo[1,5-a]pyrimidin-6-yloxy)pyrrolidin-1-yl)methyl)thiazol-2-yl)acetamide]"
11,< 1,"CC(=O)Nc1nc(F)c(CN2C[C@H](Oc3cn4nccc4cn3)C[C@@H]2C)s1 [Example 171, N-(4-fluoro-5-(((2S,4R)-2-methyl-4-(pyrazolo[1,5-a]pyrazin-6-yloxy)pyrrolidin-1-yl)methyl)thiazol-2-yl)acetamide]"
12,< 1,"CC(=O)Nc1nc(F)c(CN2C[C@H](Oc3ccc4ncnn4c3)C[C@@H]2C)s1 [Example 172, N-(5-(((2S,4R)-4-([1,2,4]triazolo[1,5-a]pyridin-6-yloxy)-2-methylpyrrolidin-1-yl)methyl)-4-fluorothiazol-2-yl)acetamide]"
13,< 1,"CC(=O)Nc1nc(F)c(CN2C[C@H](Oc3ccn4nc(C)nc4c3)C[C@@H]2C)s1 [Example 173, N-(4-fluoro-5-(((2S,4R)-2-methyl-4-((2-methyl-[1,2,4]triazolo[1,5-a]pyridin-7-yl)oxy)pyrrolidin-1-yl)methyl)thiazol-2-yl)acetamide]"
14,2.6,"CC(=O)Nc1nc(F)c(CN2C[C@H](Oc3nnc4cnccn34)C[C@@H]2C)s1 [Example 174, N-(5-(((2S,4R)-4-([1,2,4]triazolo[4,3-a]pyrazin-3-yloxy)-2-methylpyrrolidin-1-yl)methyl)-4-fluorothiazol-2-yl)acetamide]"
